The results in this text go back to patent US5939385A, “Transglutaminase cross-linkable polypeptides and methods relating thereto” (ZymoGenetics, Inc., priority 1995, dated 1999).

This assay deals with T1, recombinant Factor XIII (rFXIIIa) (Homo sapiens, UniProt P00488).
T1 construct: made in house
T1 sequence (P00488 39-732 limits assumed): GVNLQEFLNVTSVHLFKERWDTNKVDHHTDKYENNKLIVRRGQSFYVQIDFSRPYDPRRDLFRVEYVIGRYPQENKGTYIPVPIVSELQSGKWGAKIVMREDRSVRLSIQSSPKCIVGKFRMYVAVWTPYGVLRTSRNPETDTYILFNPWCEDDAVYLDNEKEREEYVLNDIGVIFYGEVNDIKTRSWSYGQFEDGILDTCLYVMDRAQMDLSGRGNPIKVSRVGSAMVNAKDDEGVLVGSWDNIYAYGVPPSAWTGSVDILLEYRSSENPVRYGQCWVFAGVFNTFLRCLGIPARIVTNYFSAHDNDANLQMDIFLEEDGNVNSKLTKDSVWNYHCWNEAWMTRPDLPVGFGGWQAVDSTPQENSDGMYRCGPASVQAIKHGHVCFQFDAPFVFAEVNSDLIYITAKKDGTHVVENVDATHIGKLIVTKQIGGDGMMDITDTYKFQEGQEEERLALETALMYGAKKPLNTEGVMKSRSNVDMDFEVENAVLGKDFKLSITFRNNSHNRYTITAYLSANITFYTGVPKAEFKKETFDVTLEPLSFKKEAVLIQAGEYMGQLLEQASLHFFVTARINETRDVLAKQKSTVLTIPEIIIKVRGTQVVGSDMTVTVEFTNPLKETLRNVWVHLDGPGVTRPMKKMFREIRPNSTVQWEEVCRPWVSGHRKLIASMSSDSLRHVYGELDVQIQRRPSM
The assay is described as follows: Factor XIII cross-linking assay of test polypeptide substrates (HPLC area % vs time). Type of assay: biochemical. The following applies: for Monomer Consumption d[S]/dt (rate of substrate utilization) / Crosslinking d(2[S-])/dt (rate of monomer incorporation into dimers) / Hydrolysis d[-NH3]/dt (hydrolysis = deamidation): initial rate, 2mM substrate, 40 ug/ml rFXIIIa (preactivated), 2.0 U/ml Thrombin, 2.5 mM CaCl2, pH 7.4; for Monomer Consumption d[S]/dt (rate of substrate utilization): 125 mM NaCl, 50 mM TrisHCl; for Hydrolysis %: share of hydrolysis (deamidation) relative to hydrolysis plus crosslinking, same reaction conditions. The protocol:
Polypeptides are screened for the ability to form transglutaminase-catalyzed cross-links using a cross-linking assay as described in more detail below. […] Each reaction receives 50 mM CaCl2 to a final concentration of 2.5 mM. A negative control for each test substrate is also prepared in which the reaction lacks a transglutaminase (e.g., Factor XIII). A positive control of the fibrinogen polypeptide (The-Ile-Gly-Glu-Gly-Gln-Gln-His-His-Leu-[…]-Gln-Ala-Gly-Asp-Val) is used for each set of reactions. The reactions are initiated by the addition of 40 μg/ml of transglutaminase (e.g., recombinant Factor XIII) followed by 0.1 unit of bovine thrombin (Enzyme Research Laboratories, Inc., South Bend, Ind.) to each solution, except the negative controls. The reactions are incubated in a 37° C. water bath. A time course of 10 μl samples are taken from each reaction at 0 minutes, 30 minutes, 60 minutes, 120 minutes and overnight. The reactions are stopped by boiling for one minute. After the reactions are terminated, each sample is diluted to 50 μl with 40 μl of TBS buffer (120 mM NaCl, 50 mM Tris (pH 7.6)) and the samples are prepared for HPLC analysis.
Each sample is chromatographed on a C-18 reverse phase HPLC column (Vydac, Hesperia, Calif. or the like) using a gradient of 0-40% B in 30 minutes (Solvent A: 0.05% trifluoroacetic acid (TFA) in water and Solvent B: 0.045% TFA in 80% acetonitrile, 20% water) on a Hewlett Packard 1090 Series II HPLC or the like. The signal is detected at a wavelength of 215 nm. The area % of each reaction product is collected and plotted versus time to determine the rates of polypeptide utilization dimer formation and multimer formation. A deamidation ratio is determined by dividing the deamidation rate by the dimerization rate.
The ability of the test polypeptides to form Factor XIII-induced multimers, and the susceptibility of the polypeptides to deamidation were assessed using the method described in detail below.
Approximately 0.5 mg of lyophilized polypeptide was dissolved in 50 mM Tris, 125 mM NaCl (pH 7.6) to give a final concentration of 2 mM by weight. […] Each test polypeptide solution received 50 mM CaCl2 to a final concentration of 2.5 mM. For each reaction, a negative control lacking Factor XIII was included. A positive control of the fibrinogen polypeptide Thr-Ile-Gly-Glu-Gly-Gln-Gln-His-His-Leu-Gly-Gly-Ala-Lys-Gln-Ala-Gly-Asp-Val was used for each set of reactions. The reactions were initiated by the addition of 40 μg/ml of recombinant Factor XIII followed by 0.1 unit of bovine thrombin (Enzyme Research Laboratories, Inc.) to each solution, except the negative controls. The reactions were incubated in a 37° C. water bath. Samples of 10 μl were taken from each reaction at 0 minutes, 30 minutes, 60 minutes, 120 minutes and overnight. The reactions were stopped by boiling for one minutes. The samples were diluted to 50 μl TBS buffer (120 mM NaCl, 50 mM Tris (pH 7.6)), and the samples were prepared for HPLC analysis.
Each reaction was chromatographed on a C-18 reverse phase HPLC column (Vydac, Hesperia, Calif., or the like) using a gradient of 0-40% B in 30 minutes (solvent A: 0.05% TFA in water and Solvent B: 0.045% TFA in 80% acetonitrile/20% water) on a Hewlett Packard 1090 Series II HPLC. The signal was detected at a wavelength of 215 nm. The area % of each reaction product was collected and plotted versus time to determine the rates of polypeptide utilization and dimer formation. A deamidation ratio was determined by dividing the deamidation rate by the dimerization rate. […] The abbreviations used in Table 1 are as follows: d[S]/dt indicates the rate of substrate utilization, d[S2 ]/dt indicates the rate of dimer formation and (-NH2 /S2) indicates the relative rates of deamidation to dimerization. The initial rates were normalized to that of the fibrinogen polypeptide Thr-Ile-Gly-Glu-Gly-Gln-Gln-His-His-Leu-Gly-Gly-Ala-Lys-Gln-Ala-Gly-Asp-Val. […]

No end group written: not given here.

As to VGGQHHLGGAKQVPG [VGGQ-- HHLGGAKQVPG], the “Monomer Consumption d[S]/dt (rate of substrate utilization)” value (“Monomer Consumption d[S]/dt” below) is 11.0 uM (monomer)/min, the “Crosslinking d(2[S-])/dt (rate of monomer incorporation into dimers)” value (from here on “Crosslinking d(2[S-])/dt”) is recorded as 11.0 uM (monomer)/min, the “Hydrolysis d[-NH3]/dt (hydrolysis = deamidation)” value (“Hydrolysis d[-NH3]/dt” below) is listed as 0.0 uM (monomer)/min and the Hydrolysis % stood at 0%.
LSQSKVG [LSQSKVG]: the “Monomer Consumption d[S]/dt” value is reported as -5.2 uM (monomer)/min, the “Crosslinking d(2[S-])/dt” value is reported as 6.8 uM (monomer)/min, the “Hydrolysis d[-NH3]/dt” value was 1.2 uM (monomer)/min and the Hydrolysis % was 15%.
The matching figures for VPGVGLSQSKVGVPGVG [VPGVGLSQSKVGVPGVG]: -32.0 uM (monomer)/min, 15.0 uM (monomer)/min, 12.5 uM (monomer)/min and 45%.
For the substance “IGEGQHHLGGAKQAGD [-- IGEGQ-- HHLGGAKQAGD--]”, the “Monomer Consumption d[S]/dt” value is on record as -12.5 uM (monomer)/min, the “Crosslinking d(2[S-])/dt” value was 14.1 uM (monomer)/min, the “Hydrolysis d[-NH3]/dt” value was -1.4 uM (monomer)/min and the Hydrolysis % is 0%.
The like results for “TIGEGQHHLGAKQAGDV [TIGEGQ-- HHLG-- AKQAGDV]” were, in that order, -7.0 uM (monomer)/min, 4.0 uM (monomer)/min, 3.0 uM (monomer)/min and 43%.
The like results for GQHHLGGAKA [-- GQ-- HHLGGAK-- A--] were, in that order, -2.4 uM (monomer)/min, 1.8 uM (monomer)/min, 0.8 uM (monomer)/min and 31%.
The like results for GQHHLGAKQ [-- GQ-- HHLG-- AKQ--] were, in that order, -4.7 uM (monomer)/min, 4.9 uM (monomer)/min, 0.0 uM (monomer)/min and 0%.
With GQHHLGAKQA [-- GQ-- HHL-- GAKQA--], the “Monomer Consumption d[S]/dt” value is on record as -8.4 uM (monomer)/min, the “Crosslinking d(2[S-])/dt” value was 8.4 uM (monomer)/min, the “Hydrolysis d[-NH3]/dt” value is -0.2 uM (monomer)/min and the Hydrolysis % was 0%.
The matching figures for EGQHHLGGAKQA [-- EGQ-- HHLGGAKQA--]: -10.8 uM (monomer)/min, 9.8 uM (monomer)/min, 0.0 uM (monomer)/min and 0%.
Take VGQHHLGGAKVPG [VGQ-- HHLGGAKVPG]: the “Monomer Consumption d[S]/dt” value is -18.0 uM (monomer)/min, the “Crosslinking d(2[S-])/dt” value is listed as 16.2 uM (monomer)/min, the “Hydrolysis d[-NH3]/dt” value was 0.0 uM (monomer)/min and the Hydrolysis % was determined as 0%.
The like results for “TIGEGQHHLGGAKAGDV [TIGEGQ-- HHLGGAK-- AGDV]” were, in that order, -10.0 uM (monomer)/min, 8.8 uM (monomer)/min, 1.4 uM (monomer)/min and 14%.
The matching figures for GVGGQHHLGGAKQVP [GVGGQ-- HHLGGAKQVP]: -9.8 uM (monomer)/min, 7.6 uM (monomer)/min, 0.0 uM (monomer)/min and 0%.
On to “GVGVPGQHHLGGAKQGVGVP [GVGVPGQ-- HHLGGAKQGVGVP]”, for which the “Monomer Consumption d[S]/dt” value is -7.3 uM (monomer)/min, the “Crosslinking d(2[S-])/dt” value is listed as 5.6 uM (monomer)/min, the “Hydrolysis d[-NH3]/dt” value was 1.7 uM (monomer)/min and the Hydrolysis % came out at 23%.
Regarding “VPGVGQHHLGGAKVPGVG [VPGVGQ-- HHLGGAKVPGVG]”, the “Monomer Consumption d[S]/dt” value is -20.8 uM (monomer)/min, the “Crosslinking d(2[S-])/dt” value was 15.8 uM (monomer)/min, the “Hydrolysis d[-NH3]/dt” value is reported as 1.8 uM (monomer)/min and the Hydrolysis % is reported as 10%.
As to “GQHHLGGAKQ [-- GQ-- HHLGGAKQ--, Gly-Gln-His-His-Leu-Gly-Gly-Ala-Lys-Gln]”, the “Monomer Consumption d[S]/dt” value is recorded as -6.9 uM (monomer)/min, the “Crosslinking d(2[S-])/dt” value is 6.2 uM (monomer)/min, the “Hydrolysis d[-NH3]/dt” value is 0.0 uM (monomer)/min and the Hydrolysis % was found to be 0%.
The like results for “VPGVGGQHHLGGAKQVPGVG [VPGVGGQ-- HHLGGAKQVPGVG]” were, in that order, -12.8 uM (monomer)/min, 11.8 uM (monomer)/min, 0.0 uM (monomer)/min and 0%.
The like results for EGQHHLGAKQAG [-- EGQ-- HHL-- GAKQAG--] were, in that order, -6.0 uM (monomer)/min, 3.0 uM (monomer)/min, 5.4 uM (monomer)/min and 64%.
The like results for GEGQHHLGGAKQAG [-- GEGQ-- HHLGGAKQAG--] were, in that order, -13.1 uM (monomer)/min, 11.2 uM (monomer)/min, 0.4 uM (monomer)/min and 3%.
